Measurements reported in patent US20100331315A1, “RHODANINES AND RELATED HETEROCYCLES AS KINASE INHIBITORS” (priority 2009, published 2010).
Read-outs that look alike come from different tables or passages of the source.

Tests used:
[1] = test system: PC-3 human prostatic cancer cells; test: Alamar Blue cell proliferation assay, PC3; format: cell-based
Description: (§1) A representative cell-proliferation assay protocol using Alamar Blue dye (stored at 4° C., use 20 ul per well) is described hereafter.
(§2) a. Split and trypsinize cells.
(§3) b. Count cells using hemocytometer.
(§4) c. Plate 4,000-5,000 cells per well in 100 μl of medium and seed into a 96-well plate according to the following plate layout. Add cell culture medium only to wells B10 to B12. Wells B1 to B9 have cells but no compound added.
(§5) d. Add 100 μl of 2× drug dilution to each well in a concentration shown in the plate layout above. At the same time, add 100 μl of media into the control wells (wells B10 to B12). Total volume is 200 μl/well.
(§6) e. Incubate four (4) days at 37° C., 5% CO2 in a humidified incubator.
(§7) f. Add 20 μl Alamar Blue reagent to each well.
(§8) g. Incubate for four (4) hours at 37° C., 5% CO2 in a humidified incubator.
(§9) h. Record fluorescence at an excitation wavelength of 544 nm and emission wavelength of 590 nm using a microplate reader.
(§10) In the assays, cells are cultured with a test compound for approximately four days, the dye is then added to the cells and fluorescence of […] dye is detected after approximately four hours. Different types of cells can be utilized in the assays (e.g., HCT-116 human colorectal carcinoma cells, PC-3 human prostatic cancer cells and MiaPaca human pancreatic carcinoma cells).

recombinant human CK2 = biological target: T1, recombinant human CK2 (Homo sapiens, UniProt P68400); test: CK2 assay (cell-free, 33P-ATP filter plate); format: biochemical
T1 construct: purchased Upstate
Description: Modulatory activity of compounds described herein was assessed in vitro in cell-free CK2 assays by the following method.
Test compounds in aqueous solution were added at a volume of 10 microliters, to a reaction mixture comprising 10 microliters Assay Dilution Buffer (ADB; 20 mM MOPS, pH 7.2, 25 mM beta-glycerolphosphate, 5 mM EGTA, 1 mM sodium orthovanadate and 1 mM dithiothreitol), 10 microliters of substrate peptide (RRRDDDSDDD, dissolved in ADB at a concentration of 1 mM), 10 microliters of recombinant human CK2 (25 ng dissolved in ADB; Upstate). Reactions were initiated by the addition of 10 microliters of ATP Solution (90% 75 mM MgCl2, 75 micromolar ATP dissolved in ADB; 10% [γ-^33P]ATP (stock 1 mCi/100 μl; 3000 Ci/mmol (Perkin Elmer) and maintained for 10 minutes at 30 degrees C. The reactions were quenched with 100 microliters of 0.75% phosphoric acid, then transferred to and filtered through a phosphocellulose filter plate (Millipore). After washing each well 5 times with 0.75% phosphoric acid, the plate was dried under vacuum for 5 min and, following the addition of 15 ul of scintillation fluid to each well, the residual radioactivity was measured using a Wallac luminescence counter.

MV-4-11 = test: Alamar Blue cell proliferation assay, MV-4-11; format: cell-based; settings: Homo sapiens
Description: as §1, §2, §3, §4, §5, §6, §7, §8, §9, §10

recombinant PIM-1 = recombinant PIM-1 (Homo sapiens, UniProt P11309); test: PIM-1 assay (33P-ATP filter plate); format: biochemical; settings: read-out: PIM1: IC50
Description: The following procedure was used to assay the PIM-1 kinase activity of compounds of the invention. Other methods for assaying PIM-1 and other PIM kinases, as well as methods to assay for activity against the various kinases are known in the art.
In a final reaction volume of 50 ul, recombinant PIM-1 (1 ng) was incubated with 12 mM MOPS pH 7.0, 0.4 mM EDTA, glycerol 1%, brij 35 0.002%, 2-mercaptoethanol 0.02%, BSA 0.2 mg/ml, 100 uM KKRNRTLTK, 10 mM MgAcetate, 15 uM ATP, [γ-^33P-ATP] (specific activity approx. 500 cpm/pmol), DMSO 4% and test inhibitor compound at the required concentration. The reaction was initiated by the addition of the Magnesium ATP mixture. After 40 min incubation at 23° C., the reactions were quenched by the addition of 100 ul 0.75% Phosphoric acid, and the labeled peptide collected by filtration through a phosphocellulose filter plate. The plate was washed 4 times with 0.075% phosphoric acid (100 ul per well) and then, after the addition of scintillation fluid (20 ul per well), the counts were measured by a scintillation counter.

K-562 = test: Alamar Blue cell proliferation assay, K-562; format: cell-based; settings: Homo sapiens
Description: as §1, §2, §3, §4, §5, §6, §7, §8, §9, §10

MDAMB231 = test: Alamar Blue cell proliferation assay, MDAMB231; format: cell-based; settings: Homo sapiens
Description: as §1, §2, §3, §4, §5, §6, §7, §8, §9, §10

[2] = test system: MiaPaca human pancreatic carcinoma cells; test: Alamar Blue cell proliferation assay, MiaPaCa; format: cell-based
Description: as §1, §2, §3, §4, §5, §6, §7, §8, §9, §10

recombinant human PIM2 = recombinant human PIM2 (Homo sapiens, UniProt Q9P1W9); test: PIM-2 assay (33P-ATP filter plate); format: biochemical; settings: for IC50: Table 5
Description: PIM-2 Assay Method: Test compounds dissolved and diluted in DMSO (2 μl) were added to a reaction mixture comprising 10 μl of 5× Reaction Buffer (40 mM MOPS pH 7.0, 5 mM EDTA), 10 μl of recombinant human PIM2 solution (4 ng PIM-2 dissolved in dilution buffer (20 mM MOPS pH 7.0; EDTA 1 mM; 5% Glycerol; 0.01% Brij 35; […]; […] 2-mercaptoethanol; 1 mg/ml BSA)) and 8 ul of water. Reactions were initiated by the addition of 10 ul of ATP Solution (49% (15 mM MgCl2; 75 uM ATP) 1% ([γ-^33P]ATP: Stock 1 mCi/1000; 3000Ci/mmol (Perkin Elmer)) and 10 ul of substrate peptide solution (RSRSSYPAGT, dissolved in water at a concentration of 1 mM), Reactions were maintained for 10 min at 30° C. The reactions were quenched with 100 ul of 0.75% Phosphoric acid, then transferred to and filtered through a Phosphocellulose filter plate (Millipore, MSPH-N6B-50). After washing each well 4 times with 0.75% Phosphoric acid, scintillation fluid (20 uL) was added to each well and the residual radioactivity was measured using a Wallac luminescence counter.

[3] = PC-3, PC3, Table 1, read-out: AB: PC3
[4] = MV4-11, MV-4-11, Table 1, read-out: AB: MV-4-11 IC50
[5] = K562, K-562, Table 1, read-out: AB: K-562 IC50
[6] = MDA-MB-231, MDAMB231, Table 1, read-out: AB: MDAMB231 IC50
[7] = MIA PaCa-2, Table 1, read-out: AB: MiaPaCa IC50
[8] = PC3, Table 2, read-out: AB: PC3 IC50
[9] = MV4-11, MV-4-11, Table 2, read-out: AB: MV-4-11 IC50
[10] = K562, K-562, Table 2, read-out: AB: K-562 IC50
[11] = MDA-MB-231, MDAMB231, Table 2, read-out: AB: MDAMB231 IC50
[12] = MIA PaCa-2, Table 2, read-out: AB: MiaPaCa IC50

recombinant human PIM2, sequence (Q9P1W9 whole entry): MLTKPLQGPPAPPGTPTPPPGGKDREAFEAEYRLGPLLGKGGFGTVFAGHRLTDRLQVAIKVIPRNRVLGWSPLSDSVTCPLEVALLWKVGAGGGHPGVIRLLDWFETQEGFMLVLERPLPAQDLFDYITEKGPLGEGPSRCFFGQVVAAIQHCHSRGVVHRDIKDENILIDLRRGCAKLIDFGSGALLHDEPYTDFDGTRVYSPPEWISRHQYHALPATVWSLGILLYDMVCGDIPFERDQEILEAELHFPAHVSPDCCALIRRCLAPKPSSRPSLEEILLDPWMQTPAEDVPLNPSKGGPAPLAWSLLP
recombinant PIM-1, sequence (P11309 whole entry): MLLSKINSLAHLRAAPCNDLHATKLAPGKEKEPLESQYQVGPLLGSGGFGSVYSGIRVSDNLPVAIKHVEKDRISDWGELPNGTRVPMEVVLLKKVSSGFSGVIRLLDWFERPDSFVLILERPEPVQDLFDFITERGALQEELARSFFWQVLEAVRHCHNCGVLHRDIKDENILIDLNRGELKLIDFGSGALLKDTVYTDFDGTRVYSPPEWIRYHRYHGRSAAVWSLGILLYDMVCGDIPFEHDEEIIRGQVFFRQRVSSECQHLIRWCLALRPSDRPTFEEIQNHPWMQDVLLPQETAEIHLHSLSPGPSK
T1 sequence (P68400 whole entry): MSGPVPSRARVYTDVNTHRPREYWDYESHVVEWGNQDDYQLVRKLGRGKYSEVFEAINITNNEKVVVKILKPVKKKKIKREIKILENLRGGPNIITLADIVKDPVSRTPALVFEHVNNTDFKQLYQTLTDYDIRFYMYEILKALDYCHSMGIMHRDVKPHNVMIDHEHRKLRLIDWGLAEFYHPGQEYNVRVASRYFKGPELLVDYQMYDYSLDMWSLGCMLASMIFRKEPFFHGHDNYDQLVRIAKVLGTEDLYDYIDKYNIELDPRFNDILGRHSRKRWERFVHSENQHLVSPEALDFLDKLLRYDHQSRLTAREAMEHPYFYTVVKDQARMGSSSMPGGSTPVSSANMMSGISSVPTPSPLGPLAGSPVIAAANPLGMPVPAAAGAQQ
T1 sequence (P67870 whole entry partner): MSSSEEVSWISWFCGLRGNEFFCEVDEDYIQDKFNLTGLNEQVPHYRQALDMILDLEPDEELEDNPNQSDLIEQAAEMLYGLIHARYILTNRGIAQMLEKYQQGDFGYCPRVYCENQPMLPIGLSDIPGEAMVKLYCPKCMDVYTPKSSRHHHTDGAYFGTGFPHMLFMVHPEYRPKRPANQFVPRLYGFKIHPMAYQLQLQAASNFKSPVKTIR

| SMILES | IC50 [1, 3] [nM] | IC50 (recombinant human CK2; Table 1) [nM] | IC50 (MV-4-11; [4]) [nM] | IC50 (recombinant PIM-1; Table 1) [nM] | IC50 (K-562; [5]) [nM] | IC50 (MDAMB231; [6]) [nM] | IC50 [2, 7] [nM] | IC50 (recombinant human CK2; Table 5) [nM] | IC50 (recombinant human PIM2) [nM] | other results |
| --- | --- | --- | --- | --- | --- | --- | --- | --- | --- | --- |
| NC(=O)c1cccc(-c2ccc(/C=C3\SC(=S)NC3=O)o2)c1 | > 10000 | 4 | > 10000 | 4 | > 10000 | > 10000 | > 10000 |  |  |  |
| O=C1NC(=O)/C(=C\c2ccc(-c3ccc(C(=O)O)cc3)o2)S1 |  |  |  |  |  |  |  |  |  | IC50 [1, 8]: > 30000 nM; IC50 (recombinant human CK2; Table 2): 9 nM; IC50 (MV-4-11; [9]): > 1000 nM; IC50 (recombinant PIM-1; Table 2): 41 nM; IC50 (K-562; [10]): > 10000 nM; IC50 (MDAMB231; [11]): > 10000 nM; IC50 [2, 12]: > 10000 nM |
| CN1CCCN(C(=O)c2cccc(-c3ccc(/C=C4/SC(=O)NC4=O)o3)c2)CC1 |  |  |  |  |  |  |  |  |  | IC50 [1, 8]: > 30000 nM; IC50 (recombinant human CK2; Table 2): 11 nM; IC50 (MV-4-11; [9]): > 1000 nM; IC50 (recombinant PIM-1; Table 2): 111 nM; IC50 (K-562; [10]): > 10000 nM; IC50 (MDAMB231; [11]): > 10000 nM; IC50 [2, 12]: > 10000 nM |
| CN1CCCN(C(=O)c2ccc(-c3ccc(/C=C4/SC(=O)NC4=O)o3)cc2)CC1 |  |  |  |  |  |  |  |  |  | IC50 [1, 8]: > 30000 nM; IC50 (recombinant human CK2; Table 2): 430 nM; IC50 (MV-4-11; [9]): > 1000 nM; IC50 (recombinant PIM-1; Table 2): 266 nM; IC50 (K-562; [10]): > 10000 nM; IC50 (MDAMB231; [11]): > 10000 nM; IC50 [2, 12]: > 10000 nM |
| CN1CCCN(c2cncc(-c3ccc(/C=C4\SC(=S)NC4=O)c(F)c3)n2)CC1 |  |  |  |  |  |  |  | 320 | 190 | IC50 (recombinant PIM-1; Table 5): 50 nM |
| CN1CCCN(c2cncc(-c3ccc(/C=C4/SC(=O)NC4=O)c(F)c3)n2)CC1 |  |  |  |  |  |  |  | > 5000 | > 2500 | IC50 (recombinant PIM-1; Table 5): 1180 nM |
| COc1cc(OC)cc(C(=O)N2CCCN(c3cncc(-c4cc(/C=C5/SC(=O)NC5=O)ccc4F)n3)CC2)c1 |  |  |  |  |  |  |  | 181 | 175 |  |
| COc1ccc(/C=C2\SC(=O)NC2=O)cc1-c1cncc(N2CCCNCC2)n1 |  |  |  |  |  |  |  |  |  | IC50 (recombinant human CK2; Table 6): 472 nM; inhibition at 2.5 µM (recombinant human PIM2; @ 2.5 uM, Table 6, read-out: PIM2: % inh @ 2.5 uM): 98.5% |

Further lines, with some results ahead:

| IC50 [1, 3] [nM] | IC50 (recombinant human CK2; Table 1) [nM] | IC50 (MV-4-11; [4]) [nM] | IC50 (recombinant PIM-1; Table 1) [nM] | IC50 (K-562; [5]) [nM] | IC50 (MDAMB231; [6]) [nM] | IC50 [2, 7] [nM] | IC50 (recombinant human CK2; Table 5) [nM] | IC50 (recombinant human PIM2) [nM] | SMILES | other results |
| --- | --- | --- | --- | --- | --- | --- | --- | --- | --- | --- |
| > 30000 | 288 | > 10000 | 162 | > 10000 | > 10000 | > 10000 |  |  | O=C1NC(=S)S/C1=C\c1ccc(-c2cccc(C(=O)NN3CCN(CCO)CC3)c2)o1 |  |
| > 30000 | 27 | > 10000 | 199 | > 10000 | > 10000 | > 10000 |  |  | O=C1NC(=S)S/C1=C\c1ccc(-c2cc(C(=O)O)ccc2Cl)o1 |  |
| > 10000 | 4 | > 10000 | 59 | > 10000 | > 10000 | > 10000 |  |  | O=C1NC(=S)S/C1=C\c1ccc(-c2ccccc2)o1 |  |
|  |  |  |  |  |  |  | > 5000 | 2350 | CN1CCCN(c2cncc(-c3cccc(/C=C4\SC(=O)N(C)C4=O)c3)n2)CC1 | IC50 (recombinant PIM-1; Table 5): 440 nM |
